Measurements from patent publication EP0463456A1, “Phosphorus-containing HMG-CoA reductase inhibitors, new intermediates and their use” (E.R. SQUIBB & SONS, INC., priority 1990, dated 1992).

Tested on: cholesterol biosynthesis in rats
Experiment: In vivo effect on cholesterol biosynthesis in rats (14C-Acetate Model; plasma 14C-nonsaponifiable lipid)
Set-up: species or system Male Sprague/Dawley rats
Conditions: dose suppressing cholesterol synthesis in vivo by 50 percent
Method: SQ 34,346 in oral or IV dosage form was tested in vivo for its effect on cholesterol biosynthesis in rats (^14C-Acetate Model).
The following in vivo tests employed a rat model system to determine the in vivo cholesterol synthesis inhibitory activity of compounds which show cholesterol synthesis inhibition in whole cell systems (freshly isolated rat hepatocytes and cultured human skin fibroblasts), and which are potent inhibitors of HMG CoA reductase.
The method used for iv and po drug testing were adapted from a procedure originally described by Sandoz (U.S. Patent No. 4,613,610, Sept. 23, 1986, and Int'I Publication No. WO 86/00367, Derwent Nos. 86271640 and 8628274). […]
For iv testing, the salt forms of test compounds were routinely dissolved in saline and injected iv into the tail vein 5 minutes before ^14C-acetate injection. […] Cholesterol synthesis was measured by determining the level of ^14C-nonsaponifiable lipid present in one mL of plasma; the method used is a modification of the method described by Dugan, et al, (Dugan, R.E., L.L. Slakey, A.V. Briedis, and J. Porter, Arch. Biochem. Biophys., 152:21 (1972)). […] Samples were counted for both ^3H and ^14C in 10 mL Optiflour scintillation fluid using a Beckman LS3801 counter programed for double label counting. […]

## (S)-4-[[[4-(4-Fluorophenyl)-1,2-bis(1-methylethyl)-5-phenyl-1H-pyrrol-3-yl]-ethynyl]hydroxyphosphinyl]-3-hydroxybutanoic acid, dilithium salt [SQ 34,346]
i.v., injected into tail vein 5 minutes before 14C-acetate
  ED50: 0.05 mg/kg
p.o., given 30 minutes before 14C-acetate
  ED50: 1.13 mg/kg
